Experimental data taken from paper PMC11823630, “In vitro potentiation of tetracyclines in Pseudomonas aeruginosa by RW01, a new cyclic peptide” (Antimicrobial Agents and Chemotherapy, 2024).
Read-outs that look alike come from different tables or passages of the source.

Assays:
P. aeruginosa PAO1 [1] = assay: MIC in the presence of 25% mouse serum; conditions: Pseudomonas aeruginosa
P. aeruginosa 125A = assay: MIC, CLSI broth microdilution in BD Phoenix AST Broth; type: cell-based, Pseudomonas aeruginosa; conditions: strain 125A
P. aeruginosa 41A = assay: as above; type: cell-based, Pseudomonas aeruginosa; conditions: strain 41A
P. aeruginosa 125B = assay: as above; type: cell-based, Pseudomonas aeruginosa; conditions: strain 125B
P. aeruginosa PAOΔmexZ = assay: as above; type: cell-based, Pseudomonas aeruginosa; conditions: strain PAOΔmexZ
P. aeruginosa PAOΔoprM = assay: as above; type: cell-based, Pseudomonas aeruginosa
P. aeruginosa PAOUW = assay: as above; type: cell-based, Pseudomonas aeruginosa; conditions: strain PAOUW; for MIC: agent alone, 37°C, 18–22 h, three biological replicates
P. aeruginosa PAOUW∆oprF = assay: as above; type: cell-based, Pseudomonas aeruginosa
P. aeruginosa 41B = assay: as above; type: cell-based, Pseudomonas aeruginosa; conditions: strain 41B
P. aeruginosa PAOΔmexR = assay: as above; type: cell-based, Pseudomonas aeruginosa
P. aeruginosa PAO1 [2] = assay: as above; type: cell-based, Pseudomonas aeruginosa; conditions: for MIC: agent alone, 37°C, 18–22 h, three biological replicates
[3] = Pseudomonas aeruginosa, agent alone, 37°C, 18–22 h, three biological replicates
[4] = MIC of the antibiotic with fixed 100 mg/L RW01
[5] = antibiotic MIC alone vs with RW01 100 mg/L
[6] = antibiotic with RW01 at 100 mg/L
[7] = strain PAOΔoprM, antibiotic with RW01 at 100 mg/L
[8] = strain PAOUWΔoprF (printed PAOΔoprF), antibiotic with RW01 at 100 mg/L
[9] = strain PAOΔmexR, antibiotic with RW01 at 100 mg/L
[10] = strain PAO1, antibiotic with RW01 at 100 mg/L

CN(C)c1ccc(O)c2c1C[C@H]1C[C@H]3[C@H](N(C)C)C(O)=C(C(N)=O)C(=O)[C@@]3(O)C(O)=C1C2=O [Minocycline, minocycline]
MIC (P. aeruginosa PAO1 [1]; PAO1, read-out: MIC + RW01 in the presence of serum): 4 µg/mL | MIC (P. aeruginosa PAO1 [1]; PAO1, read-out: MIC in the presence of serum): 32 µg/mL | MIC (P. aeruginosa 125A; [3]): 8 µg/mL | Antibiotic MIC + RW01 100 mg/L (P. aeruginosa 125A; [4]): 1 µg/mL | Potentiation (fold) (P. aeruginosa 125A; [5]): 8 fold | FICI (P. aeruginosa 125A; [6]): 0.320 | FICI-determined effect (P. aeruginosa 125A; [6]): Synergy (synergistic effect if FICI is ≤0.5) | MIC (P. aeruginosa 41A; [3]): 8 µg/mL | Antibiotic MIC + RW01 100 mg/L (P. aeruginosa 41A; [4]): 2 µg/mL | Potentiation (fold) (P. aeruginosa 41A; [5]): 4 fold | FICI (P. aeruginosa 41A; [6]): 0.348 | FICI-determined effect (P. aeruginosa 41A; [6]): Synergy (synergistic effect if FICI is ≤0.5) | MIC (P. aeruginosa 125B; [3]): 8 µg/mL | Antibiotic MIC + RW01 100 mg/L (P. aeruginosa 125B; [4]): 1 µg/mL | Potentiation (fold) (P. aeruginosa 125B; [5]): 8 fold | FICI (P. aeruginosa 125B; [6]): 0.320 | FICI-determined effect (P. aeruginosa 125B; [6]): Synergy (synergistic effect if FICI is ≤0.5) | MIC (P. aeruginosa PAOΔmexZ; [3]): 8 µg/mL | Antibiotic MIC + RW01 100 mg/L (P. aeruginosa PAOΔmexZ; [4]): 1 µg/mL | FICI (P. aeruginosa PAOΔmexZ; [6]): 0.160 | FICI-determined effect (P. aeruginosa PAOΔmexZ; [6]): Synergy (synergistic effect if FICI is ≤0.5) | MIC (P. aeruginosa PAOΔoprM; Pseudomonas aeruginosa): 2 µg/mL | Antibiotic MIC + RW01 100 mg/L (P. aeruginosa PAOΔoprM; strain PAOΔoprM, MIC of the antibiotic with fixed 100 mg/L RW01): 0.5 µg/mL | Potentiation (fold) (P. aeruginosa PAOΔoprM; strain PAOΔoprM, antibiotic MIC alone vs with RW01 100 mg/L): 4 fold | FICI (P. aeruginosa PAOΔoprM; [7]): 0.348 | FICI-determined effect (P. aeruginosa PAOΔoprM; [7]): Synergy (synergistic effect if FICI is ≤0.5) | MIC (P. aeruginosa PAOUW; Pseudomonas aeruginosa, read-out: MIC): 16 µg/mL | MIC (P. aeruginosa PAOUW): 8 µg/mL | Potentiation (fold) (P. aeruginosa PAOUW; [5]): 8 fold | FICI (P. aeruginosa PAOUW; [6]): 0.223 | FICI-determined effect (P. aeruginosa PAOUW; [6]): Synergy (synergistic effect if FICI is ≤0.5) | MIC (P. aeruginosa PAOUW∆oprF; Pseudomonas aeruginosa, strain PAOUWΔoprF, agent alone, 37°C, 18–22 h, three biological replicates): 8 µg/mL | Potentiation (fold) (P. aeruginosa PAOUW∆oprF; strain PAOUWΔoprF (printed PAOΔoprF), antibiotic MIC alone vs with RW01 100 mg/L): 8 fold | FICI (P. aeruginosa PAOUW∆oprF; [8]): 0.223 | FICI-determined effect (P. aeruginosa PAOUW∆oprF; [8]): Synergy (synergistic effect if FICI is ≤0.5) | Antibiotic MIC + RW01 100 mg/L (P. aeruginosa PAOUW∆oprF; strain PAOUWΔoprF, MIC of the antibiotic with fixed 100 mg/L RW01): 1 µg/mL | MIC (P. aeruginosa 41B; [3]): 16 µg/mL | Potentiation (fold) (P. aeruginosa 41B; [5]): 8 fold | FICI (P. aeruginosa 41B; [6]): 0.223 | FICI-determined effect (P. aeruginosa 41B; [6]): Synergy (synergistic effect if FICI is ≤0.5) | MIC (P. aeruginosa PAOΔmexR; Pseudomonas aeruginosa): 8 µg/mL | Antibiotic MIC + RW01 100 mg/L (P. aeruginosa PAOΔmexR; strain PAOΔmexR, MIC of the antibiotic with fixed 100 mg/L RW01): 1 µg/mL | Potentiation (fold) (P. aeruginosa PAOΔmexR; strain PAOΔmexR, antibiotic MIC alone vs with RW01 100 mg/L): 8 fold | FICI (P. aeruginosa PAOΔmexR; [9]): 0.223 | FICI-determined effect (P. aeruginosa PAOΔmexR; [9]): Synergy (synergistic effect if FICI is ≤0.5) | MIC (P. aeruginosa PAO1 [2]; Pseudomonas aeruginosa, PAO1, strain PAO1, read-out: MIC): 8 to 16 µg/mL | Antibiotic MIC + RW01 100 mg/L (P. aeruginosa PAO1 [2]; strain PAO1, MIC of the antibiotic with fixed 100 mg/L RW01): 2 µg/mL | MIC (P. aeruginosa PAO1 [2]; strain PAO1): 8 µg/mL | Potentiation (fold) (P. aeruginosa PAO1 [2]; strain PAO1, antibiotic MIC alone vs with RW01 100 mg/L): 4 fold | FICI (P. aeruginosa PAO1 [2]; [10]): 0.445 | FICI-determined effect (P. aeruginosa PAO1 [2]; [10]): Synergy (synergistic effect if FICI is ≤0.5)
